In one series the test system is MCF7 breast. As to the kind of experiment: MTT cytotoxicity assay, MCF7. The series is classed as cell-based. To be noted: Homo sapiens; for IC50: 24 h, MCF7 Breast, read-out: ED50 values of cytotoxicity. Here is the method:
(§1) Briefly, a three day MTT cytotoxicity assay was performed, which is based on the principle of uptake of MTT (3-(4,5-dimethylthiazol-2-yl)-2,5-diphenyl tetrazolium bromide), a tetrazolium salt, by the metabolically active cells where it is metabolized by active mitochondria into a blue colored formazan product that is read spectrophotometrically. MTT was dissolved in phosphate buffered saline with a pH of 7.4 to obtain an MTT concentration of 5 mg/ml; the resulting mixture was filtered through a 0.22 micron filter to sterilize and remove a small amount of insoluble residue. For each type of tumor cell, 20,000 to 50,000 cells were seeded in a 96-well culture plate and incubated with the combination in a CO2 incubator for 24 hours. […] After incubating for one hour, the plate was read spectrophotometrically at 540 nm and the percentage cytotoxicity calculated.

Another series concerns 293 Kidney. As to the kind of experiment: MTT cytotoxicity assay, 293. The series is classed as cell-based. The note with it: Homo sapiens, 24 h, read-out: ED50 values of cytotoxicity. Here is the method:
as §1
(In general: Tetrazolium assays rely on reduction of a dye to a coloured formazan, in cell work by metabolically active cells.)

In the next series the test system is ECV304 cells. As to the kind of experiment: Inhibition of tube-like-structure (TLS) formation on Matrigel. It is filed as cell-based. The arrangement: key: significant (++); marginal (+); no effect (−). The note with it: 24 hours. The method, then: Matrigel (70 ul) was placed into each well of a 96-well culture plate at 4° C. and was allowed to polymerize by incubation at 37° C. for 30 min. ECV304 (1×10^4) cells were seeded on the Matrigel in 200 ul DMEM supplemented with 10% FBS. The compounds to be tested were added to marked wells at selected non-cytotoxic concentrations and incubated at 37° C. for 24 hours. Five different phase-contrast microscopic fields (4X) were viewed and tube-like structure formation was evaluated qualatively by observing formation of lumen (sprouting) and extent of formation of branches and loops by sprouts (intususception). The inhibition of TLS caused by the addition of the test compound was recorded as significant (++), marginal (+), or no effect (−) as compared to the control TLS formation. A summary of the results is given below in the form of a table indicating the concentrations tested.

For a further series, the system named is Swiss albino mice. It is filed as in vivo. To be noted: oral; for safe dose: Swiss albino mice weighing 25 grams; for Mortality: observed 15 days.
In a further series the test system is PA 1 Ovary. Kind of series: MTT cytotoxicity assay, PA 1. The series is classed as cell-based. To be noted: Homo sapiens, 24 h; PA 1 Ovarian; read-out: ED50 values of cytotoxicity. Here is the method: as §1
The test system of series [1] is PTC (Colon) Tumor Xenografts. As to the kind of experiment: Antitumor activity on PTC (Colon) tumor xenografts in nude mice. The series is classed as in vivo, Balb/c athymic mice. To be noted: 10 mg orally once a day for 15 days; at the end of treatment. The method, then: PTC (colon) tumor xenografts were initiated in Balb/c athymic mice by subcutaneous inoculation of a single cell suspension of PTC cells (15×10^6 cells/100 μL). […] The anti-tumor activity was monitored by measuring tumor volumes every fourth day and calculating volumes using the formula 0.4×W^2×L(W=smaller dia, L=larger dia,).

In the next series the test system is KB Oral. As to the kind of experiment: MTT cytotoxicity assay, KB. It is filed as cell-based. To be noted: Homo sapiens, 24 h, read-out: ED50 values of cytotoxicity. The method, then:
as §1

For series [2], the system named is Glyceraldehyde 3 phosphate dehydrogenase. As to the kind of experiment: Glyceraldehyde 3 phosphate dehydrogenase enzyme activity assay. It is filed as biochemical. The method, then: The activity of Glyceraldehyde 3 phosphate dehydrogenase enzyme was assayed by the methods detailed earlier. (Krebs E, 1955, Methods in Enzymology, 1 407 and Velick S, 1955, Methods in Enzymology, 1, 401). To monitor the reaction, the increase in absorbance at 340 nm due to the formation of NADH from NAD was recorded at 15 seconds intervals, the values remaining almost linear for 3 minutes. The assay mixture was in a total volume of 1.5 ml containing 1.3 ml of Sodium pyrophosphate buffer (0.015M; pH 8.5), containing sodium arsenate (0.03M), 0.05 ml of NAD (7.5 mM), 0.05 ml of DTT (0.1M) and 0.05 ml of DL- glyceraldehyde 3 phosphate (7 mM). The enzyme was diluted 1:100 immediately prior to use in Sodium pyrophosphate buffer (0.015M) (pH 8.5) containing sodium arsenate (0.03M). The reaction was initiated by the addition of 0.05 ml of glyceraldehyde 3 phosphate dehydrogenase enzyme. The test mixture contained methyl glyoxal or its conjugates in concentrations ranging from 0.5 mM to 5 mM. Methyl glyoxal and its conjugates were dissolved in 2.5% ethanol and water. The control experiments were carried out in the absence of the enzyme or the substrate under identical conditions. One unit of activity of glyceraldehyde 3 phosphate dehydrogenase is defined as the amount of enzyme required to convert lumol of NAD to NADH per minute under conditions defined as above.

A further series concerns L132 Lung. Kind of series: MTT cytotoxicity assay, L132. It is filed as cell-based. To be noted: Homo sapiens, 24 h, read-out: ED50 values of cytotoxicity. Here is the method: as §1
Another series deals with PTC Colon. Kind of series: MTT cytotoxicity assay, PTC. It is filed as cell-based. The note with it: Homo sapiens, 24 h, read-out: ED50 values of cytotoxicity. The method, then: as §1
The test system of the next series is INT 407 Intestine. As to the kind of experiment: MTT cytotoxicity assay, INT 407. It is filed as cell-based. To be noted: Homo sapiens, 24 h, read-out: ED50 values of cytotoxicity. The method, then: as §1
For the next series, the system named is U87MG Glioblastoma. Kind of series: MTT cytotoxicity assay, U87MG. The series is classed as cell-based. To be noted: Homo sapiens, U-87 MG, 24 h, read-out: ED50 values of cytotoxicity. Here is the method: as §1
The subject of the next series is Miapaca2 Pancreas. As to the kind of experiment: MTT cytotoxicity assay, Miapaca2. It is filed as cell-based. To be noted: Homo sapiens, MIA PaCa-2, 24 h, read-out: ED50 values of cytotoxicity. The method, then: as §1
In a further series the test system is Hep2 Larynx. As to the kind of experiment: MTT cytotoxicity assay, Hep2. To be noted: Homo sapiens, HEp-2, 24 h, read-out: ED50 values of cytotoxicity. It is filed as cell-based. The method, then:
as §1

The subject of another series is MOLT 4 Leukemia. As to the kind of experiment: MTT cytotoxicity assay, MOLT 4. The note with it: Homo sapiens, 24 h, read-out: ED50 values of cytotoxicity. It is filed as cell-based. The method, then:
as §1

The test system of a further series is DU145 Prostate. As to the kind of experiment: MTT cytotoxicity assay, DU145. It is filed as cell-based. To be noted: Homo sapiens, DU-145, 24 h, read-out: ED50 values of cytotoxicity. The method, then: as §1
[3] abbreviates: dosage level 2.5X (X=400 mg/kg B.Wt.).
Where [4] appears, read: dosage level 3.5X (X=400 mg/kg B.Wt.).
Setting [5] is: dosage level 5X (X=400 mg/kg B.Wt.).
Where [6] appears, read: dosage level 7.5X (X=400 mg/kg B.Wt.).
Setting [7] is: dosage level 10X (X=400 mg/kg B.Wt.).

Read-outs that look alike come from different tables or passages of the source.

On to `COC(=O)C1CCC(=O)N1C(O)C(C)=O` (stereo not shown) [MGC-1, N-(1-Hydroxy-2-ketopropyl)-methylpyroglutamate], for which the cytotoxicity at 1000 µM in the series with MCF7 breast (MCF7, 1.0 mM, read-out: Percent cytotoxicity) was 0%. Also, the cytotoxicity at 5000 µM in the series with MCF7 breast (MCF7, 5 mM, read-out: Percent cytotoxicity) came to 12.9 ± 2.1%.

As to `CCCCOC(=O)C1CCC(=O)N1C(O)C(C)=O` (stereo not shown) [MGC-2, N-(1-Hydroxy-2-ketopropyl)-butylpyroglutamate], in the series with 293 Kidney, the IC50 amounted to 2000 ± 800 µM. Also, the “TLS Inhibition (Qualitative)” value with ECV304 cells (1.2 mM) was “+”. For the same compound, the safe dose in the series with Swiss albino mice is listed as 75 mg. For the same compound, the Mortality in the series with Swiss albino mice (setting [3]) is given as 0/10; in the series on Swiss albino mice (setting [4]) it was 0/10; in the series on Swiss albino mice (setting [5]) it was 0/10; in the series on Swiss albino mice (setting [6]), 0/10; with Swiss albino mice (setting [7]) it was 10/10.

For `CC(=O)C(O)N1C(=O)CCC1C(=O)OCc1ccccc1` (stereo not shown) [MGC-3, N-(1-Hydroxy-2-ketopropyl)-benzylpyroglutamate], the “TLS Inhibition (Qualitative)” value with ECV304 cells (2 mM) was “+”; in the series with ECV304 cells (2.5 mM) it was “++”. For the same compound, in the series on PA 1 Ovary, the IC50 worked out at 1800 ± 600 µM.

In the case of `COC(=O)C1CCC(=O)N1C(OC(C)=O)C(C)=O` (stereo not shown) [MGC-4, N-(1-Acetoxy-2-ketopropyl)-methylpyroglutamate], the “TLS Inhibition (Qualitative)” value in the series on ECV304 cells (1.2 mM) was “−”. For the same compound, the “average tumor volume as compared to average tumor volume of untreated control tumors” value in [1] stood at 41%. Also, the safe dose in the series with Swiss albino mice is 100 mg. The Mortality in the series on Swiss albino mice (setting [3]), in the series with Swiss albino mice (setting [4]), in the series with Swiss albino mice (setting [5]), in the series with Swiss albino mice (setting [6]) and in the series with Swiss albino mice (setting [7]) was 0/10 throughout.

With `CCCCOC(=O)C1CCC(=O)N1C(OC(C)=O)C(C)=O` (stereo not shown) [MGC-5, N-(1-Acetoxy-2-ketopropyl)-butylpyroglutamate], the IC50 with 293 Kidney was found to be 1900 ± 700 µM; with KB Oral, 2000 ± 700 µM. For the same compound, the “TLS Inhibition (Qualitative)” value in the series with ECV304 cells (1.2 mM) is given as “+”.

Turning to `CC(=O)OC(C(C)=O)N1C(=O)CCC1C(=O)OCc1ccccc1` (stereo not drawn) [MGC-6, N-(l-acetoxy-2-ketopropyl)-benzylpyroglutamate], the results for the “Percent Inhibition Of Glyceraldehyde 3 Phosphate Dehydrogenase Activity” value in [2] (0.5 mM), in series [2] (1 mM) and in [2] (5 mM) were 28.3 ± 2.5%, 29.4 ± 3.0% and 30.1 ± 4.0%, respectively. Besides, the IC50 in the series on L132 Lung is 3800 ± 1000 µM; in the series on 293 Kidney, 2900 ± 1000 µM; with KB Oral it was 2950 ± 300 µM; in the series with PTC Colon it was 1600 ± 400 µM; with INT 407 Intestine, > 5000 µM; with U87MG Glioblastoma, 4780 ± 600 µM. The IC50 with Miapaca2 Pancreas is 3900 ± 1000 µM; in the series on MCF7 breast, > 5000 µM; in the series with Hep2 Larynx, 1200 ± 200 µM; in the series with MOLT 4 Leukemia, 1300 ± 300 µM; in the series with DU145 Prostate it was 1900 ± 1000 µM; in the series with PA 1 Ovary, 1400 ± 200 µM. In addition, the “TLS Inhibition (Qualitative)” value with ECV304 cells (1.2 mM) is reported as “−”. The compound also had a safe dose in the series on Swiss albino mice of 75 mg. The Mortality was 0/10 with Swiss albino mice (setting [3]); 0/10 in the series on Swiss albino mice (setting [4]); 0/10 in the series on Swiss albino mice (setting [5]); 0/10 in the series on Swiss albino mice (setting [6]); 10/10 with Swiss albino mice (setting [7]).

In the case of `CCOC(=O)C1CCC(=O)N1C(O)C(C)=O` (stereo not shown) [MGC-7, N-(1-Hydroxy-2-ketopropyl)-ethylpyroglutamate], the safe dose in the series on Swiss albino mice is 100 mg. For the same compound, the Mortality in the series with Swiss albino mice (setting [3]), in the series on Swiss albino mice (setting [4]), in the series with Swiss albino mice (setting [5]), in the series with Swiss albino mice (setting [6]) and in the series with Swiss albino mice (setting [7]) was 0/10 each time.

Consider `CCOC(=O)C1CCC(=O)N1C(OC(C)=O)C(C)=O` (stereo not shown) [MGC-8, N-(1-Acetoxy-2-ketopropyl)-ethylpyroglutarnate], for which the “Percent Inhibition Of Glyceraldehyde 3 Phosphate Dehydrogenase Activity” value is 32.8 ± 1.2% in series [2] (0.5 mM), 40.1 ± 2.2% in [2] (1 mM) and 38.2 ± 1.9% in [2] (5 mM). For the same compound, the IC50 in the series with L132 Lung is > 5000 µM; with KB Oral, 1950 ± 800 µM; in the series on PTC Colon it was 2750 ± 400 µM; with INT 407 Intestine, 550 ± 300 µM; in the series with U87MG Glioblastoma it was 1880 ± 700 µM; with MCF7 breast, 2400 ± 1200 µM. The IC50 with Hep2 Larynx is 2100 ± 600 µM; with MOLT 4 Leukemia, 2900 ± 500 µM; in the series on DU145 Prostate it was 1300 ± 300 µM; in the series with PA 1 Ovary, 1800 ± 700 µM. The compound further had a safe dose in the series with Swiss albino mice of 100 mg. In addition, the Mortality with Swiss albino mice (setting [3]), in the series on Swiss albino mice (setting [4]), with Swiss albino mice (setting [5]), in the series with Swiss albino mice (setting [6]) and in the series on Swiss albino mice (setting [7]) was 0/10 in each case.

With `CC(=O)C=O` [Methylglyoxal, reference compound], the “Percent Inhibition Of Glyceraldehyde 3 Phosphate Dehydrogenase Activity” value stood at 15 ± 4% in series [2] (0.5 mM), 18 ± 3.4% in series [2] (1 mM) and 20 ± 4.0% in [2] (5 mM). Further, the “Glyceraldehyde 3 phosphate dehydrogenase enzyme activity inhibition (in words)” value in [2] (concentration ranging from 0.5 mM to 5 mM) is listed as “inhibited significantly”. The results for the “TLS Inhibition (Qualitative)” value with ECV304 cells (0.5 mM), in the series on ECV304 cells (0.8 mM) and in the series with ECV304 cells (1 mM) were “+”, “+” and “++”, respectively. Further, the “average tumor volume as compared to average tumor volume of untreated control tumors” value in series [1] was 50%.

These data come from patent publication US6613793B2 (Dabur Research Foundation, priority 2001, dated 2003).
